Results: publication PMC7822861, “A functional family of fluorescent nucleotide analogues to investigate actin dynamics and energetics” (Nature Communications, 2021)

Molecular target: T1, actin (G-actin, rabbit muscle) (Oryctolagus cuniculus, UniProt P68135)
T1 construct: gene ACTA1; rabbit muscle actin monomer; with mouse twinfilin C-terminal ADF-H domain (residues 176–316), in the crystal only
Test: co-crystal structure ([…] Å); fluorescence anisotropy association/dissociation kinetics
Format: binding

ATP-ATTO-488
k-: ~ (1 ± 0.4) × 10^−3 (k−) s^−1
